Ki data for 68 molecules are collected here from patent publication US6727264B1 (Synaptic Pharmaceutical Corporation, priority 2001, dated 2004).

Structures are written as SMILES.

For one test, the target named is rat MCH-1 (Rattus norvegicus, UniProt P97639). As to the kind of experiment: Radioligand binding assay at cloned rat MCH1 receptor ([3H] Compound A). More on the design: host or cells: Peak rapid 293 (Peakr293) cells, transient calcium phosphate transfection, membranes. The note with it: cloned rat MCH1 receptor, membranes from Peakr293 cells, 0.08 nM [3H] Compound A; read-out: Ki (nM) rMCH1.
Chain of rat MCH-1 (P97639 whole entry): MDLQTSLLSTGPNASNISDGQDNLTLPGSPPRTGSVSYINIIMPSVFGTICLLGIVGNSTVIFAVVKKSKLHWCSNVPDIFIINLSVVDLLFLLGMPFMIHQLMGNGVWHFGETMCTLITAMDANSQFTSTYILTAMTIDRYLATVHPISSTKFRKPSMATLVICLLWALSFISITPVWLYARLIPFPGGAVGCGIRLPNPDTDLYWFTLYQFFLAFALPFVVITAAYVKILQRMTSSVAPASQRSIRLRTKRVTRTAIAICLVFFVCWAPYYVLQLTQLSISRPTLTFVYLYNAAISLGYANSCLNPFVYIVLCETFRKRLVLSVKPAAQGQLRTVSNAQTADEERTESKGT
What is called Ki is a dissociation constant, usually derived from enzyme kinetics or from competition with a known ligand. Take `CC(C)C(=O)Nc1cccc(C2CCN(C[C@H](C)COc3ccc(F)cc3)CC2)c1` [Example 359]: the Ki was 83.2 nM.

Turning to `CC(C)C(=O)Nc1cccc(C2CCN(C[C@H](C)COc3cccc(F)c3)CC2)c1` [Example 360], the Ki was 163 nM.

Turning to `CC(C)C(=O)Nc1cccc(C2CCN(C[C@H](C)COc3ccccc3Cl)CC2)c1` [Example 361], the inhibition constant Ki was found to be 311 nM.

`CC(C)C(=O)Nc1cccc(C2CCN(C[C@H](C)COc3ccccc3F)CC2)c1` [Example 362]: the Ki worked out at 281 nM.

As to `CC(C)C(=O)Nc1cccc(C2CCN(C[C@H](C)COc3ccc(Cl)cc3)CC2)c1` [Example 363], the Ki turned out to be 31.6 nM.

Turning to `CC(C)C(=O)Nc1cccc(C2CCN(C[C@H](C)COc3cccc(Br)c3)CC2)c1` [Example 364], the Ki was 144 nM.

As for `CC(C)C(=O)Nc1cccc(C2CCN(C[C@H](C)COc3ccccc3Br)CC2)c1` [Example 365], the Ki was 42.9 nM.

With `CC(C)C(=O)Nc1cccc(C2CCN(C[C@@H](C)COc3cccc(F)c3)CC2)c1` [Example 366], the Ki amounted to 646 nM.

For `CC(C)C(=O)Nc1cccc(C2CCN(C[C@@H](C)COc3ccc(F)cc3)CC2)c1` [Example 367], the Ki is 236 nM.

As to `CC(C)C(=O)Nc1cccc(C2CCN(C[C@@H](C)COc3ccccc3Cl)CC2)c1` [Example 368], the Ki was 313 nM.

For `CC(C)C(=O)Nc1cccc(C2CCN(C[C@@H](C)COc3ccc(Cl)cc3)CC2)c1` [Example 369], the Ki was determined as 145 nM.

As to `CC(C)C(=O)Nc1cccc(C2CCN(C[C@@H](C)COc3cccc(Br)c3)CC2)c1` [Example 371], the Ki was 163 nM.

Take `CC(C)C(=O)Nc1cccc(C2CCN(C[C@@H](C)COc3ccccc3Br)CC2)c1` [Example 372]: the Ki was 358 nM.

`CC(C)C(=O)Nc1cccc(C2CCN(C[C@@H](C)COc3cccc(Cl)c3)CC2)c1` [Example 373]: the Ki turned out to be 428 nM.

For the molecule `CC(C)C(=O)Nc1cccc(C2CCN(CCCC3OCC(C)(C)CO3)CC2)c1` [Example 374], the Ki was determined as 96.8 nM.

In the case of `CC(=O)c1cccc(OCCCCN2CCC(c3cccc(NC(=O)C(C)C)c3)CC2)c1` [Example 375], the Ki was 186 nM.

On to `COc1cccc(OCCCCN2CCC(c3cccc(NC(=O)C(C)C)c3)CC2)c1` [Example 376], for which the Ki was determined as 888 nM.

Take `COc1ccc(OCCCCN2CCC(c3cccc(NC(=O)C(C)C)c3)CC2)cc1` [Example 377]: the Ki turned out to be 712 nM.

In the case of `COc1ccccc1OCCCCN1CCC(c2cccc(NC(=O)C(C)C)c2)CC1` [Example 378], the Ki is 308 nM.

For `Cc1ccc(OCCCCN2CCC(c3cccc(NC(=O)C(C)C)c3)CC2)cc1C` [Example 379], the Ki amounted to 204 nM.

`CC(C)C(=O)Nc1cccc(C2CCN(CCCCC3OCCO3)CC2)c1` [Example 380]: the Ki came out at 309 nM.

With `CC(=O)c1cccc(OCCCCCN2CCC(c3cccc(NC(=O)C(C)C)c3)CC2)c1` [Example 381], the Ki amounted to 235 nM.

On to `CC(=O)c1cccc(OCCCCCN2CCC(c3cccc(NC(=O)C4CC4)c3)CC2)c1` [Example 382], for which the Ki was found to be 319 nM.

With `CC(=O)c1cccc(OCCCCCCN2CCC(c3cccc(NC(=O)C(C)C)c3)CC2)c1` [Example 383], the Ki is 290 nM.

Consider `CC(=O)c1cccc(OCCCCCCN2CCC(c3cccc(NC(=O)C4CC4)c3)CC2)c1` [Example 384], for which the Ki was 69 nM.

For `CC(C)C(=O)Nc1cccc(C2CCN(CCCC(Oc3ccc(Cl)cc3)c3ccc(Cl)cc3)CC2)c1` (centres unmarked) [Example 385], the Ki turned out to be 325 nM.

Turning to `CC(C)C(=O)Nc1cccc(C2CCN(CCc3c(-c4ccccc4)n(C)c4ccccc34)CC2)c1` [Example 386], the Ki stood at 26.3 nM.

Take `CC(C)C(=O)Nc1cccc(C2CCN(CCc3c(-c4ccccc4)[nH]c4c3ccc3ccccc34)CC2)c1` [Example 387]: the Ki worked out at 19.7 nM.

As for `CC(C)C(=O)Nc1cccc(C2CCN(CCCc3c(-c4ccccc4)[nH]c4c3ccc3ccccc34)CC2)c1` [Example 388], the Ki turned out to be 20.7 nM.

As for `CC(C)C(=O)Nc1cccc(C2CCN(CCCc3c(-c4ccccc4)[nH]c4ccc(OC(F)(F)F)cc34)CC2)c1` [Example 389], the Ki amounted to 2.2 nM.

Take `CC(C)C(=O)Nc1cccc(C2CCN(CCCCc3c(-c4ccccc4)[nH]c4ccc(OC(F)(F)F)cc34)CC2)c1` [Example 390]: the Ki was found to be 1 nM.

As to `CC(C)C(=O)Nc1cccc(C2CCN(CCCc3c(-c4ccccc4)n(C)c4ccccc34)CC2)c1` [Example 391], the Ki worked out at 21.9 nM.

Turning to `CC(C)C(=O)Nc1cccc(C2CCN(CCCCc3c(-c4ccccc4)n(-c4ccccc4)c4ccccc34)CC2)c1` [Example 392], the inhibition constant Ki was 18.1 nM.

Consider `CC(C)C(=O)Nc1cccc(C2CCN(CCCCCc3c(-c4ccccc4)[nH]c4ccc(OC(F)(F)F)cc34)CC2)c1` [Example 393], for which the Ki was found to be 9.5 nM.

`CC(C)C(=O)Nc1cccc(C2CCN(CCCCCc3c(-c4ccccc4)n(C)c4ccccc34)CC2)c1` [Example 395]: the Ki was found to be 2.4 nM.

Turning to `CC(C)C(=O)Nc1cccc(C2CCN(CCCCCc3c(-c4ccccc4)[nH]c4c3ccc3ccccc34)CC2)c1` [Example 398], the Ki amounted to 13.6 nM.

The test is the same for the next values; noted with them: cloned rat MCH1 receptor; 0.08 nM [3H] Compound A; Peakr293 cell membranes; read-out: Ki (nM) rMCH1.
In the case of `Cc1ccc2[nH]c(-c3ccccc3)c(CCN3CCC(c4cccc(NC(=O)C(C)C)c4)CC3)c2c1` [Example 399], the Ki was 31.9 nM.

Regarding `COc1cccc2c(CCN3CCC(c4cccc(NC(=O)C(C)C)c4)CC3)c(-c3ccccc3)[nH]c12` [Example 400], the Ki stood at 43.9 nM.

As for `Cc1cccc2c(CCN3CCC(c4cccc(NC(=O)C(C)C)c4)CC3)c(-c3ccccc3)[nH]c12` [Example 401], the Ki is 44.6 nM.

With `Cc1cccc2c(CCCCN3CCC(c4cccc(NC(=O)C(C)C)c4)CC3)c(-c3ccccc3)[nH]c12` [Example 403], the Ki was determined as 11.7 nM.

As for `COc1cccc2c(CCCCN3CCC(c4cccc(NC(=O)C(C)C)c4)CC3)c(-c3ccccc3)[nH]c12` [Example 406], the Ki was found to be 12.3 nM.

With `CC(C)C(=O)Nc1cccc(C2CCN(CCCc3cn(-c4ccccc4)c4ccccc34)CC2)c1` [Example 407], the Ki stood at 16.6 nM.

Regarding `CC(C)C(=O)Nc1cccc(C2CCN(CCc3cn(-c4ccccc4)c4ccccc34)CC2)c1` [Example 408], the Ki came out at 21.6 nM.

Take `Cc1cccc2c(CCN3CCC(c4cccc(NC(=O)C(C)C)c4)CC3)c[nH]c12` [Example 409]: the Ki came out at 96.7 nM.

Regarding `CC(C)C(=O)Nc1cccc(C2CCN(CCc3cn(C)c4ccccc34)CC2)c1` [Example 410], the Ki is 263 nM.

As for `Cc1ccc2[nH]cc(CCN3CCC(c4cccc(NC(=O)C(C)C)c4)CC3)c2c1` [Example 411], the Ki stood at 82.3 nM.

For `CC(C)C(=O)Nc1cccc(C2CCN(CCc3c[nH]c4ccc(OC(F)(F)F)cc34)CC2)c1` [Example 412], the Ki was 27 nM.

As to `CC(C)C(=O)Nc1cccc(C2CCN(CCCc3c[nH]c4c3ccc3ccccc34)CC2)c1` [Example 413], the Ki came out at 76.8 nM.

Take `CC(C)C(=O)Nc1cccc(C2CCN(CCCc3cn(C)c4ccccc34)CC2)c1` [Example 414]: the Ki was determined as 2.9 nM.

Turning to `Cc1ccc2[nH]cc(CCCN3CCC(c4cccc(NC(=O)C(C)C)c4)CC3)c2c1` [Example 415], the inhibition constant (Ki) was 8.1 nM.

Consider `CC(C)C(=O)Nc1cccc(C2CCN(CCCc3c[nH]c4ccc(OC(F)(F)F)cc34)CC2)c1` [Example 416], for which the Ki turned out to be 12.6 nM.

For `Cc1cccc2c(CCCN3CCC(c4cccc(NC(=O)C(C)C)c4)CC3)c[nH]c12` [Example 417], the Ki is 20.5 nM.

As to `COc1cccc2c(CCCN3CCC(c4cccc(NC(=O)C(C)C)c4)CC3)c[nH]c12` [Example 418], the Ki was determined as 51.6 nM.

For `COc1cccc2c(CCN3CCC(c4cccc(NC(=O)C(C)C)c4)CC3)c[nH]c12` [Example 419], the Ki is 83.9 nM.

For `Cc1ccc2[nH]c(-c3ccccc3)c(CCCCN3CCC(c4cccc(NC(=O)C(C)C)c4)CC3)c2c1` [Example 421], the Ki was found to be 1.8 nM.

Take `Cc1ccc(-n2cc(CN3CCC(c4ccc(NC(=O)C(C)C)cc4)CC3)c3ccccc32)cc1` [Example 422]: the Ki was found to be 173 nM.

For the molecule `CCCC(=O)Nc1ccc(C2CCN(Cc3cn(-c4ccc(C)cc4)c4ccccc34)CC2)cc1` [Example 423], the Ki came out at 405 nM.

On to `CC(C)C(=O)Nc1cccc(C2CCN(Cc3c(-c4ccccc4N)[nH]c4ccccc34)CC2)c1` [Example 424], for which the Ki turned out to be 114 nM.

For `CCOC(=O)c1[nH]c2ccccc2c1CN1CCC(c2cccc(NC(=O)C(C)C)c2)CC1` [Example 425, ETHYL 3-({4-[3-(ISOBUTYRYLAMINO)PHENYL]-1-PIPERIDINYL}METHYL)-1H-INDOLE-2-CARBOXYLATE], the Ki is 599 nM.

On to `CC(C)C(=O)Nc1cccc(C2CCN(Cc3cn(C)c4ccccc34)CC2)c1` [Example 426], for which the Ki came to 556 nM.

Turning to `COc1ccc2[nH]c(C)c(CN3CCC(c4cccc(NC(=O)C(C)C)c4)CC3)c2c1` [Example 427], the Ki is 248 nM.

On to `CC(C)C(=O)Nc1cccc(C2CCN(Cc3c(-c4ccccc4)n(C)c4ccccc34)CC2)c1` [Example 428], for which the Ki came to 132 nM.

As to `CC(C)C(=O)Nc1cccc(C2CCN(Cc3c[nH]c4ccc([N+](=O)[O-])cc34)CC2)c1` [Example 429], the Ki came out at 121 nM.

For the molecule `Cc1[nH]c2ccccc2c1CN1CCC(c2cccc(NC(=O)C(C)C)c2)CC1` [Example 430], the Ki was 647 nM.

For `CC(C)C(=O)Nc1cccc(C2CCN(Cc3c[nH]c4cccc(Br)c34)CC2)c1` [Example 431], the Ki was 968 nM.

For the molecule `CC(C)C(=O)Nc1cccc(C2CCN(Cc3c(-c4ccc(F)cc4)[nH]c4ccccc34)CC2)c1` [Example 432], the inhibition constant (Ki) worked out at 198 nM.

Take `CC(C)C(=O)Nc1cccc(C2CCN(Cc3c(-c4ccccc4)n(-c4ccccc4)c4ccccc34)CC2)c1` [Example 433]: the Ki was 30.4 nM.

As for `CCn1c(-c2ccc(Cl)cc2)c(CN2CCC(c3cccc(NC(=O)C(C)C)c3)CC2)c2ccccc21` [Example 434], the Ki is 214 nM.
